Measurements published in patent US6150361A, “Triazineone compounds for treating diseases due to sarcosystis, neospora and toxoplasma” (Bayer Corporation, priority 1998, dated 2000).
Several values for one entry are separate records, joined by “and”; a condition that tells them apart may be missing. Identical values can stand only once.

Assays:
Type in all cases: in vivo
[1] = Drug levels in cerebral spinal fluid after repeated doses of Toltrazuril in horses; set-up: Drug level in Cerebral Spinal Fluid, Day 10 / AVG drug level in Cerebral Spinal Fluid, Day 10: unit not given here; settings: for AVG drug level in Cerebral Spinal Fluid, Day 10: group average; for Drug level in Cerebral Spinal Fluid, Day 10: individual horse
Experimental: (§1) This experiment was conducted in order to determine whether triazineones such as Toltrazuril can pass the blood-brain barrier. Normal horses were divided into three groups of three horses per group. Group 1 horses received Toltrazuril administered orally as a 5% suspension at a dose level of 2.5 mg/Kg. Group 2 horses received Toltrazuril administered orally as a 5% suspension at a dose level of 5.0 mg/Kg. Group 3 horses received Toltrazuril administered orally as a 5% suspension at a dose level of 7.5 mg/Kg. The dosing was repeated daily for 10 days. Blood samples were drawn at 48, 96 and 240 hours and the concentration of Toltrazuril, Toltrazuril sulfoxide and Ponazuril in the serum was measured. Ten days after the start of the treatment (Day 10), a sample of cerebral spinal fluid was removed from each horse and the concentrations of Toltrazuril, Toltrazuril Sulfoxide and Ponazuril were again measured in these samples. The concentrations of Toltrazuril, Toltrazuril Sulfoxide and Ponazuril in the serum and cerebral spinal fluid are reported in TABLES 5a and 5b.

[2] = system: EPM-Infected Horses; test: Treatment of naturally occurring clinical EPM in horses with Ponazuril paste (clinical score)
Experimental: The compound was formulated into a paste using Ponazuril as a 15% active ingredient (a.i.) as described in EXAMPLE 1. It was administered to horses already diagnosed with EPM once a day for 28 days at a dose rate between 2.5 mg/Kg and 10 mg/Kg.
Naturally occurring clinical cases of EPM were well characterized by signalment and laboratory diagnosis. The diagnosis used for incorporation of EPM-positive horses into this trial was as follows: Confirmed asymmetrical neurological deficit as determined by a standardized neurological examination, to include radiography, indicative of EPM; Positive Western Blot for Sarcocystis neurona IgG; Red Blood Cell count below 500 cells/mL; CSF indices--Total Protein<90, IgG index>0.3. AQ quotient<2.2.
Additional requirements were that the horses were not suffering from diseases other than EPM. Therefore, they had to meet the following criteria: Negative CSF (<1:4) for EHV-1; Normal serum values for Vitamin E (.2.0 μg/mL); Lack of seizure disorders; Lack of behavior disorders.
Diagnosed horses were randomly assigned to groups. Group 1 horses received the paste formulation daily at a dose rate of 5 mg/Kg whereas Group 2 horses received the paste formulation daily at a dose rate of 10 mg/Kg. The treatment dose was based on body weight. The horses were evaluated for a period of 90 days (approximately 60 days after discontinuation of treatment) in order to determine that treatment was indeed effective. The response to treatment was scored using the following system:
1) 0=complete success-clinically normal with a negative CSF; 2) 1=Deficit just detected at a normal gait; 3) 2=Deficit easily detected and exaggerated by backing, turning, swaying, jaw loin pressure and neck extension; 4) 3=Deficit very prominent on walking, Facial turning, loin pressure or neck extension; 5) 4=Stumbling, tripping and falling down spontaneously; 6) 5=Recumbent, unable to rise. An improvement of one (1) unit in the score was considered a significant improvement.

[3] = Drug levels in serum after repeated doses of Toltrazuril in horses; set-up: unit not given here; settings: for AVG drug level in serum, 48 Hrs / AVG drug level in serum, 96 Hrs / AVG drug level in serum, 240 Hrs: group average; for Drug level in serum, 48 Hrs / Drug level in serum, 96 Hrs / Drug level in serum, 240 Hrs: individual horse
Experimental: as §1

[4] = Pharmacokinetics of a single oral dose of Toltrazuril in horses (blood levels); settings: single oral dose of Toltrazuril 10 mg/kg
Experimental: A pharmacokinetic study was conducted in horses comparing blood levels of Toltrazuril, Ponazuril and Toltrazuril Sulfoxide at various times post a single dose of Toltrazuril. All horses received a single dose of 10 mg/kg, which was administered orally as a suspension. Blood samples were drawn at the time of treatment (0) and at 0.25, 0.5, 1, 2, 4, 6, 12, 24, 48 and 72 hours post treatment. […] This was an indication that Ponazuril, alone, would produce acceptable blood levels that are envisioned to pass the blood-brain barrier, a characteristic required to treat neurological diseases such as those caused by Sarcocystis neurona, Toxoplasma gondii, Neospora caninum and Neospora

[5] = Toltrazuril 2.5 mg/Kg oral daily for 10 days
[6] = Toltrazuril 5.0 mg/Kg oral daily for 10 days
[7] = Toltrazuril 7.5 mg/Kg oral daily for 10 days
[8] = individual horse, 5 mg/Kg paste daily for 28 days, score 0=complete success to 5=recumbent, listed as Toltrazuril Sulfone
[9] = individual horse, 10 mg/Kg paste daily for 28 days, score 0=complete success to 5=recumbent, listed as Toltrazuril Sulfone
[10] = sum of scores of group, 5 mg/Kg daily for 28 days
[11] = sum of scores of group, 10 mg/Kg daily for 28 days

**Q.** For `Cc1cc(-n2c(=O)[nH]c(=O)n(C)c2=O)ccc1Oc1ccc(S(=O)(=O)C(F)(F)F)cc1` [Ponazuril], which “AVG drug level in Cerebral Spinal Fluid, Day 10” value (from here on “AVG drug level … Day 10”) [1, 5] is on record?
**A.** 0.09

**Q.** And the “Drug level in Cerebral Spinal Fluid, Day 10” value [1, 5]?
**A.** 0.09 and 0.07 and 0.11

**Q.** What about the “AVG drug level … Day 10” value [1, 6] of the same compound?
**A.** 0.16

**Q.** What about the “Drug level in Cerebral Spinal Fluid, Day 10” value [1, 6] of the same compound?
**A.** 0.12 and 0.14 and 0.21

**Q.** And the “AVG drug level … Day 10” value [1, 7]?
**A.** 0.22

**Q.** And the “Drug level in Cerebral Spinal Fluid, Day 10” value [1, 7]?
**A.** 0.23 and 0.17 and 0.27

**Q.** And the “concentration in the cerebral spinal fluid compared with Toltrazuril” value ([1]; after treatment of horses with Toltrazuril)?
**A.** essentially equivalent to the concentration of Toltrazuril itself

**Q.** What about the “improvement in total scores, Group 1 versus Group 2” value ([2]; 5 mg/Kg versus 10 mg/Kg) of the same compound?
**A.** approximately equivalent

**Q.** What about the “horses showing a significant improvement in clinical score by day 90” value ([2]; 10 mg/Kg, treated for 28 days, improvement of 1 unit significant) of the same compound?
**A.** 100%

**Q.** What about the “effectiveness for the active treatment of EPM in horses” value ([2]; either 5 mg/Kg or 10 mg/Kg) of the same compound?
**A.** effective

**Q.** And the “clinical score, Day 28, 5 mg/Kg Dose” value [2, 8]?
**A.** 1 and 2 and 0 and 3

**Q.** What about the “clinical score, Day 90, 5 mg/Kg Dose” value [2, 8] of the same compound?
**A.** 2 and 1 and 0 and 3

**Q.** And the “clinical score, Day 28, 10 mg/Kg Dose” value [2, 9]?
**A.** 2 and 1 and 0

**Q.** And the “clinical score, Day 90, 10 mg/Kg Dose” value [2, 9]?
**A.** 1 and 0

**Q.** What about the “clinical score, Day 0, 5 mg/Kg Dose” value ([2]; individual horse, before treatment, 5 mg/Kg paste daily for 28 days, score 0=complete success to 5=recumbent, listed as Toltrazuril Sulfone) of the same compound?
**A.** 2 and 3

**Q.** And the “clinical score, Day 0, 10 mg/Kg Dose” value ([2]; individual horse, before treatment, 10 mg/Kg paste daily for 28 days, score 0=complete success to 5=recumbent, listed as Toltrazuril Sulfone)?
**A.** 4 and 3 and 2

**Q.** What about the “TOTAL clinical score, Day 28, 5 mg/Kg Dose” value [2, 10] of the same compound?
**A.** 13

**Q.** What about the “TOTAL clinical score, Day 90, 5 mg/Kg Dose” value [2, 10] of the same compound?
**A.** 6

**Q.** And the “TOTAL clinical score, Day 28, 10 mg/Kg Dose” value [2, 11]?
**A.** 15

**Q.** What about the “TOTAL clinical score, Day 90, 10 mg/Kg Dose” value [2, 11] of the same compound?
**A.** 4

**Q.** And the “TOTAL clinical score, Day 0, 5 mg/Kg Dose” value ([2]; sum of scores of group, before treatment, 5 mg/Kg)?
**A.** 17

**Q.** And the “TOTAL clinical score, Day 0, 10 mg/Kg Dose” value ([2]; sum of scores of group, before treatment, 10 mg/Kg)?
**A.** 19

**Q.** What about the “AVG drug level in serum, 48 Hrs” value [3, 5] of the same compound?
**A.** 1.41

**Q.** What about the “AVG drug level in serum, 96 Hrs” value [3, 5] of the same compound?
**A.** 1.76

**Q.** What about the “AVG drug level in serum, 240 Hrs” value [3, 5] of the same compound?
**A.** 3.00

**Q.** And the “Drug level in serum, 48 Hrs” value [3, 5]?
**A.** 0.29 and 0.24 and 3.70

**Q.** And the “Drug level in serum, 96 Hrs” value [3, 5]?
**A.** 0.99 and 1.15 and 3.13

**Q.** And the “Drug level in serum, 240 Hrs” value [3, 5]?
**A.** 2.61 and 2.36 and 4.04

**Q.** What about the “AVG drug level in serum, 48 Hrs” value [3, 6] of the same compound?
**A.** 0.53

**Q.** And the “AVG drug level in serum, 96 Hrs” value [3, 6]?
**A.** 2.26

**Q.** And the “AVG drug level in serum, 240 Hrs” value [3, 6]?
**A.** 5.02

**Q.** And the “Drug level in serum, 48 Hrs” value [3, 6]?
**A.** 0.48 and 0.63

**Q.** And the “Drug level in serum, 96 Hrs” value [3, 6]?
**A.** 2.09 and 2.03 and 2.66

**Q.** And the “Drug level in serum, 240 Hrs” value [3, 6]?
**A.** 5.44 and 2.03 and 5.61

**Q.** What about the “AVG drug level in serum, 48 Hrs” value [3, 7] of the same compound?
**A.** 2.55

**Q.** What about the “AVG drug level in serum, 96 Hrs” value [3, 7] of the same compound?
**A.** 2.89

**Q.** What about the “AVG drug level in serum, 240 Hrs” value [3, 7] of the same compound?
**A.** 6.58

**Q.** And the “Drug level in serum, 48 Hrs” value [3, 7]?
**A.** 6.35 and 0.78 and 0.52

**Q.** And the “Drug level in serum, 96 Hrs” value [3, 7]?
**A.** 2.69 and 2.89 and 3.09

**Q.** What about the “Drug level in serum, 240 Hrs” value [3, 7] of the same compound?
**A.** 6.31 and 6.37 and 7.06

**Q.** And the concentration at 0.25 h ([4]; horse, blood, po, 10 mg/kg, suspension, 0.25 h post treatment, one value per horse (A-F), read-out: Concentration in mg/l of Blood, 0.25 hours)?
**A.** 0.01 mg/L

**Q.** And the concentration at 24 h ([4]; horse, blood, po, 10 mg/kg, suspension, 24 h post treatment, one value per horse (A-F), read-out: Concentration in mg/l of Blood, 24 hours)?
**A.** 0.324 mg/L

**Q.** And the “levels in serum/bloodstream of horses receiving Toltrazuril (in words)” value [4]?
**A.** relatively high levels

**Q.** And the “Concentration in mg/l of Blood, 0.25 hours” value ([4]; suspension, 0.25 h post treatment, one value per horse (A-F), 10 mg/kg, 15 min)?
**A.** < 0.01 mg/L

**Q.** What about the “Concentration in mg/l of Blood, 6 hours” value ([4]; suspension, 6 h post treatment, one value per horse (A-F), 10 mg/kg, 360 min) of the same compound?
**A.** 0.061 mg/L

**Q.** And the “Concentration in mg/l of Blood, 24 hours” value ([4]; suspension, 24 h post treatment, one value per horse (A-F), 10 mg/kg, 1440 min)?
**A.** 0.255 mg/L and 0.315 mg/L and 0.231 mg/L and 0.192 mg/L
